According to patent publication US10695348B2, “Sulfonyl pyridyl TRP inhibitors” (Genentech, Inc., priority 2017, dated 2020):
≈ marks a conversion by molar mass, not a printed value.

What was measured:
[1] = Human liver microsome clearance / stability; format: in vitro ADME; conditions: human liver microsomes
From the text: Human liver microsome clearance (mL/min/kg) may be measured according to the method described by Ackley et al, “Metabolic Stability Assessed by Liver Microsomes and Hepatocytes”, in “Optimization in Drug Discovery” in the “Methods in Pharmacology and Toxicology” series (ISSN 1557-2153), pp. 151-162 (Yan, Ed., Print ISBN 978-1-58829-332-9, Springer (2004), as well as by using commercially available assay kits by Cerep, Cyprotex, Bd Bioscience and others.
Human liver microsome HLM stability may be measured as using the procedure of Ackley et al. as described above.

[2] = Aqueous solubility (K. Sol); format: physicochemical; conditions: aqueous medium (not further specified), kinetic from dmso stock; read-out: K. Sol (estimated aqueous solubility)
From the text: Aqueous solubility may be determined using the procedures reported by Alsenz et al., “High throughput solubility measurement in drug discovery and development,” Advanced Drug Delivery Reviews (2007) 59, 546-568 and Kibbey et al., “An Integrated Process for Measuring the Physicochemical Properties of Drug Candidates in a Preclinical Discovery Environment,” J. Pharmaceutical Sci. (2001) 90(8), 1164-1175.

[3] = Human protein plasma binding; format: in vitro ADME; conditions: read-out: hPPB (human protein plasma binding) (converted)
Protocol: Certain pharmacokinetic attributes were evaluated for sulfonyl pyridyl compounds of the present disclosure. The results are shown in Table 3 below where: “hTRPA1” refers to IC50 in nM; “hPPB” refers to human protein plasma binding in percent; “Corrected IC50” refers to the hTRPA1 values corrected for hPPB; “HLM-CLhep” refers to human liver microsome clearance in mL/min/kg; “K.Sol” refers to estimated aqueous solubility in μM; and “NR” refers to not run.
Human protein plasma binding may be measured according to the methods described by Banker et al., “Plasma/Serum Protein Binding Determinations,” Current Drug Metabolism (2008), 9, 854-859, and Kariv et al., “Development of a high throughput equilibrium dialysis method,” J. Pharm Sci. (2001) May; 90(5):580-87, as well as using commercially available assay kits by Wyatt, Cerep, Cyprotex and others.

human TRPA1 [4] = molecular target: T1, human TRPA1 (Homo sapiens, UniProt O75762); assay: FLIPR Tetra calcium influx assay, CHO cells expressing TRPA1, cinnamaldehyde agonist (hTRPA1 CHO Ca2+ AUC EVO); format: cell-based
T1 construct: expressed in transfected cells; host or cells: CHO cells
T1 sequence (O75762 whole entry): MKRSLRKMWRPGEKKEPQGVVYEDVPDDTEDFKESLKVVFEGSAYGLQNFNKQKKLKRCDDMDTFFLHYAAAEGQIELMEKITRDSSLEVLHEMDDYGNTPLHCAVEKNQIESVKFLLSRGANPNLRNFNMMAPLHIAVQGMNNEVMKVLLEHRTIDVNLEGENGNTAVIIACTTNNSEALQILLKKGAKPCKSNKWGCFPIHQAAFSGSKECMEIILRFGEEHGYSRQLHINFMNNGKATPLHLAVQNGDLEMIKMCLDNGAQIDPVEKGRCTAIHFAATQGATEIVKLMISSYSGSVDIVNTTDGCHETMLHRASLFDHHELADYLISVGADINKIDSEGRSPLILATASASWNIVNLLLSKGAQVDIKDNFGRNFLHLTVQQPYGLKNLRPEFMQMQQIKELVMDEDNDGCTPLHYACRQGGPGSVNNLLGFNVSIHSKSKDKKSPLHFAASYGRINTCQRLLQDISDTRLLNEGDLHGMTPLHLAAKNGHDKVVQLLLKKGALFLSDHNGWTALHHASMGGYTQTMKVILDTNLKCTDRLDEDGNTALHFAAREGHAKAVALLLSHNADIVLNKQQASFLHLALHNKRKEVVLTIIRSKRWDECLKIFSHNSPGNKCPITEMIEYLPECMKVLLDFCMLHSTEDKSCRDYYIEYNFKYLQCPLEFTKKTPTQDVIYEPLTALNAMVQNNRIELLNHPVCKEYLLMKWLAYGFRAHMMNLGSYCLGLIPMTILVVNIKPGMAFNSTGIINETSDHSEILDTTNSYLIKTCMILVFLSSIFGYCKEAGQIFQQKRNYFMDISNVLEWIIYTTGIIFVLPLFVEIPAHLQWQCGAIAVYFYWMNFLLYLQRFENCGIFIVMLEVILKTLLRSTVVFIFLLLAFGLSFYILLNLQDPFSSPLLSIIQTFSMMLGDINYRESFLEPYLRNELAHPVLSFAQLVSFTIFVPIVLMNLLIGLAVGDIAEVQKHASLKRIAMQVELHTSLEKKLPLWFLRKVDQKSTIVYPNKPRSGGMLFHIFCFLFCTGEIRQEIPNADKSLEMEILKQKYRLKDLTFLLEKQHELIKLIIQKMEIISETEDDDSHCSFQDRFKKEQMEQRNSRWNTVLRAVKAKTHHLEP
Protocol: The IC50 ([…]) of compounds on the human and rat TRPA1 channels were determined using a FLIPR Tetra instrument. CHO cells expressing TRPA1 were plated into 384-well plates, incubated overnight at 37° C., and loaded with BD calcium indicator dye for 1 hr at 37° C. followed by 15 minutes at room temperature. The assay buffer was Hank's Balanced Salt Solution (HBSS) containing 20 mM HEPES (pH readjusted to 7.4) along with 0.02% BSA.
Following dye load and plate cool down, compounds were added to the cells using FLIPR Tetra. Plates were then incubated with compounds for 20 minutes at room temperature prior to adding agonist. Following this incubation, about an EC80 concentration of cinnamaldehyde (75 uM for human TRPA1 and 45 uM for rat TRPA1) was added to active the channels and block of cinnamaldehyde induced calcium influx was measured.
The IC50 results were fit with a standard Hill function, keeping the Hill coefficient (n) fixed to 1.5. Fixing the Hill coefficient will generally reduce variability of the IC50 determination. The IC50 results were individually examined to make sure the MIN and MAX points were set correctly prior to validation of the results.

[5] = GSH (glutathione) trapping of reactive metabolites; format: in vitro ADME; conditions: in vitro incubation with glutathione as trapping reagent
Protocol: GSH trapping in a method for screening reactive metabolites for the potential to cause adverse drug reactions. Reactive metabolites may implicate clinical toxicity through drug compound bioactivation or inactivation of proteins. One such assessment utilizes in vitro incubations comprising glutathione (GSH) as a trapping reagent. LC/MS may be used to detect and characterize reactive intermediate formation as indicated by trapped glutathione adducts, as described by Yan et al., “Stable Isotope Trapping and High Throughput Screenings of Reactive Metabolites Using the Active MS Signature,” Anal. Chem. (2004), 76, 6835-6847.

human TRPA1 [6] = molecular target: T1, human TRPA1; assay: Human Ca2+ MAX IC50 calcium assay; format: cell-based; conditions: Table 5; read-out: H Ca2+ MAX (human CA2+ MAX IC50)
From the text: Human Ca2+ MAX IC50 may be measured using one of the commercially available calcium assay kits provided by Molecular Devices, Abcam, Bio-Rad, Biovision, Enzo Lifesciences, Abnova, Sigma-Aldrich, or others.

[7] = Table 3, read-out: hTRPA1 (IC50)
[8] = calculated from hTRPA1 IC50 and hPPB, read-out: Corrected IC50 (hTRPA1 values corrected for hPPB)

| SMILES | HLM-CLhep (human liver microsome clearance) ([1]; Table 3) [mL/min/kg] | solubility [2] [µM] | fraction unbound [3] | IC50 (human TRPA1 [4]; [7]) [nM] | IC50 (human TRPA1 [4]; [8]) [nM] | HLM (human liver microsome stability) ([1]; Table 5) [mL/min/kg] | GSH trapping (glutathione trapping) [5] | IC50 (human TRPA1 [6]) [nM] |
| --- | --- | --- | --- | --- | --- | --- | --- | --- |
| C[C@H]1[C@H](F)C[C@@H](C(=O)NCc2cc(-c3cnc(C(F)(F)F)nc3)ncc2C(F)(F)F)N1S(=O)(=O)c1ccc(F)cn1 (single isomer, unassigned) [Pyridyl Sulfonamide 1] | 4 | 30 (≈ 18.3 µg/mL) | 0.049 | 7.9 | 161 | – | – | – |
| C[C@H]1[C@H](F)C[C@@H](C(=O)NCc2cc(-c3cnc(C(F)(F)F)nc3)ncc2F)N1S(=O)(=O)c1ccc(F)cn1 (single isomer, unassigned) [Pyridyl Sulfonamide 2] | – | 4 (≈ 2.24 µg/mL) | 0.075 | 404 | 5400 | – | – | – |
| C[C@H]1[C@H](F)C[C@@H](C(=O)NCc2cc(-c3cnc(C(F)(F)F)nc3)cnc2C(F)F)N1S(=O)(=O)c1ccc(F)cn1 (single isomer, unassigned) [Pyridyl Sulfonamide 3] | – | – | 0.17 | 329 | 1940 | – | – | – |
| C[C@H]1[C@H](F)C[C@@H](C(=O)NCc2cc(-c3cnc(C(F)(F)F)nc3)ncc2C(F)(F)F)N1S(=O)(=O)c1ccc(Cl)nc1 [Compound 5] | – | – | – | – | – | 6.6 | positive | 5 |
